Key:
Assay type in all cases: biochemical
Conditions in all cases: labelled compound; histone H1, MBP or casein as phosphoacceptor; 10 µM ATP, Mg/Mn, pH 7.5, 37 °C
[1] = molecular target: T1, PfCLK-2 (Plasmodium falciparum, UniProt Q8IL41); experiment: radiometric kinase assay of immunoprecipitate, autoradiography
T1 construct: gene PF3D7_1443000; endogenous full-length, about 150 kDa, immunoprecipitated from mixed asexual blood stage lysate on protein G-beads
T1 sequence (Q8IL41 1-1268): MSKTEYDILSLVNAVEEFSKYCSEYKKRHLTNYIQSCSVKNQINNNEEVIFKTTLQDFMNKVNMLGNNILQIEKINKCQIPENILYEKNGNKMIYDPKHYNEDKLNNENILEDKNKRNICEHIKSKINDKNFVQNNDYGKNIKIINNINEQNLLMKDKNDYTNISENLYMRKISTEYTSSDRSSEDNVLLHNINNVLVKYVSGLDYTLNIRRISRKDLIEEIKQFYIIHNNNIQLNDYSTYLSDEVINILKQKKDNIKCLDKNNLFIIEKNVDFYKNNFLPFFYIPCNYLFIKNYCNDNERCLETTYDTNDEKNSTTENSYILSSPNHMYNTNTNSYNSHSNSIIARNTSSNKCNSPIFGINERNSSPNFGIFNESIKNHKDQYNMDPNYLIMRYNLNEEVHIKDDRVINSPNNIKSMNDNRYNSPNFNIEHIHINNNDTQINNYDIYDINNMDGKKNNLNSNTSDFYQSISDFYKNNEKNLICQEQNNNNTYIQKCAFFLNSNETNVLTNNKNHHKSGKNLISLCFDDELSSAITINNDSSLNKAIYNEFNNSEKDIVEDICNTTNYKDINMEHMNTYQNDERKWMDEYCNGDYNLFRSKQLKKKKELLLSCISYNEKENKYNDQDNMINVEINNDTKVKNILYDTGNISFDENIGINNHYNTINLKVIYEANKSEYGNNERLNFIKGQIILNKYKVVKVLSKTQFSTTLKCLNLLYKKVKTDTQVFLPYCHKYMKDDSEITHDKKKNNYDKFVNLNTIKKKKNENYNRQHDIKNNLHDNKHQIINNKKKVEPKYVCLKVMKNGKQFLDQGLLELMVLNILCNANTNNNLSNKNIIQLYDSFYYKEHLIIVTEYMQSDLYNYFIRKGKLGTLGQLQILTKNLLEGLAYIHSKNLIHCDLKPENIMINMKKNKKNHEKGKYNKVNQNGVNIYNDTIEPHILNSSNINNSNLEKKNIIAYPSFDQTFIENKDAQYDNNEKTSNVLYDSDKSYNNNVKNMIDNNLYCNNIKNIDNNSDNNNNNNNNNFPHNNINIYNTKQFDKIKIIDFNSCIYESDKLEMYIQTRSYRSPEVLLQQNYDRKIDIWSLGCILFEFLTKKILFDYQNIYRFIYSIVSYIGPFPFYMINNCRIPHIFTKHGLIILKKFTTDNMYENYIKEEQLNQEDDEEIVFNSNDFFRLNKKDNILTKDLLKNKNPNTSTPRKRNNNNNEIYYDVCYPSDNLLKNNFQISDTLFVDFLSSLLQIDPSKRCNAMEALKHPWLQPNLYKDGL

[2] = molecular target: T2, PfCLK-4 (Plasmodium falciparum, UniProt O77306); experiment: as above
T2 construct: gene PF3D7_0302100; endogenous full-length, about 160 kDa, immunoprecipitated from mixed asexual blood stage lysate on protein G-beads
T2 sequence (O77306 1-1338): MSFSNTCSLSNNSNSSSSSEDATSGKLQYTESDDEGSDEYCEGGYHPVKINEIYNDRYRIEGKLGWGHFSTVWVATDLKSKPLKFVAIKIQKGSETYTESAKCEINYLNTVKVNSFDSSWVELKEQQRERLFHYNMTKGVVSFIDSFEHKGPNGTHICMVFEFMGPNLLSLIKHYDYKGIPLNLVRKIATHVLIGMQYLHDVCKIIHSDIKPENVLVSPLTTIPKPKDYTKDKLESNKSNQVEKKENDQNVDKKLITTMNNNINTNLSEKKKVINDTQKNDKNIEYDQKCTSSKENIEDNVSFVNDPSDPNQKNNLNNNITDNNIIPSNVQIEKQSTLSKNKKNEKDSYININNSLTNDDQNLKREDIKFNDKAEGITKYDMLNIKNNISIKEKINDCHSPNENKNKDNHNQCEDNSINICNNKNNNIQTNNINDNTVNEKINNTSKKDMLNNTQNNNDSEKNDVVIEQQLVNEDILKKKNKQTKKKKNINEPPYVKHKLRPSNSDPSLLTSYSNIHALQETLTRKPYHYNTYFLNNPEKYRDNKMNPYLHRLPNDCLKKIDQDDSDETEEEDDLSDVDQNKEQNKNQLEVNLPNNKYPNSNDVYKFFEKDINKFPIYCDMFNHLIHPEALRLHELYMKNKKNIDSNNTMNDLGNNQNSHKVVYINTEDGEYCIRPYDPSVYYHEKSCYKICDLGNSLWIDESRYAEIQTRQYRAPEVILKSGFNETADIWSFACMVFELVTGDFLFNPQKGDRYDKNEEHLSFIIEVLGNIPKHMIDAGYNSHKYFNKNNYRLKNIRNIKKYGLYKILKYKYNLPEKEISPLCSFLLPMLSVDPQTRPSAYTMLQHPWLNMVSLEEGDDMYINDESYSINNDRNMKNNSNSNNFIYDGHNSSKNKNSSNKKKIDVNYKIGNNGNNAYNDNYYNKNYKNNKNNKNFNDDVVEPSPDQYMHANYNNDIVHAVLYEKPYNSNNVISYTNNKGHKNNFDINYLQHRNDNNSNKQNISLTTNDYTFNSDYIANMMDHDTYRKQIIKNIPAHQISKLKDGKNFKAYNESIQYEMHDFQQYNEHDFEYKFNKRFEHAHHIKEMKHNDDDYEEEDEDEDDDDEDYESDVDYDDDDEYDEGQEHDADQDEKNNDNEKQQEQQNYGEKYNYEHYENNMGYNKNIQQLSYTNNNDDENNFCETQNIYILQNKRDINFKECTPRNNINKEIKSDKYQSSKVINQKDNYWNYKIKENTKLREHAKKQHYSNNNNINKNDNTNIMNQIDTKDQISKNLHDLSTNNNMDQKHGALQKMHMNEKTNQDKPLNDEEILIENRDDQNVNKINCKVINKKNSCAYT

[3] = molecular target: T3, PfPK6 (Plasmodium falciparum, UniProt O77239); experiment: radiometric kinase assay, autoradiography
T3 construct: gene PK6; recombinant His6-tagged, purified as previously reported
T3 sequence (O77239 1-305): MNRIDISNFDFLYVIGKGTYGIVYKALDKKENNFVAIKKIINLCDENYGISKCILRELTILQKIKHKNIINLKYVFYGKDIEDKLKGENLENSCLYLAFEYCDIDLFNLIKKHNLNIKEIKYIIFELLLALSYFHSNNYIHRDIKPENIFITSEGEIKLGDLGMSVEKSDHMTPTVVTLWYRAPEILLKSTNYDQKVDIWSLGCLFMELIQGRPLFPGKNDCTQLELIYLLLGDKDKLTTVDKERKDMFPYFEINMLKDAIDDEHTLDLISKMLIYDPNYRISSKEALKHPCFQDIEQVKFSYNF

[4] = molecular target: T4, PfCLK-3 (Plasmodium falciparum, UniProt Q8IIL5); experiment: radiometric kinase assay of immunoprecipitate, autoradiography
T4 construct: gene PF3D7_1114700; endogenous full-length, about 80 kDa, immunoprecipitated from mixed asexual blood stage lysate on protein G-beads
T4 sequence (Q8IIL5 1-699): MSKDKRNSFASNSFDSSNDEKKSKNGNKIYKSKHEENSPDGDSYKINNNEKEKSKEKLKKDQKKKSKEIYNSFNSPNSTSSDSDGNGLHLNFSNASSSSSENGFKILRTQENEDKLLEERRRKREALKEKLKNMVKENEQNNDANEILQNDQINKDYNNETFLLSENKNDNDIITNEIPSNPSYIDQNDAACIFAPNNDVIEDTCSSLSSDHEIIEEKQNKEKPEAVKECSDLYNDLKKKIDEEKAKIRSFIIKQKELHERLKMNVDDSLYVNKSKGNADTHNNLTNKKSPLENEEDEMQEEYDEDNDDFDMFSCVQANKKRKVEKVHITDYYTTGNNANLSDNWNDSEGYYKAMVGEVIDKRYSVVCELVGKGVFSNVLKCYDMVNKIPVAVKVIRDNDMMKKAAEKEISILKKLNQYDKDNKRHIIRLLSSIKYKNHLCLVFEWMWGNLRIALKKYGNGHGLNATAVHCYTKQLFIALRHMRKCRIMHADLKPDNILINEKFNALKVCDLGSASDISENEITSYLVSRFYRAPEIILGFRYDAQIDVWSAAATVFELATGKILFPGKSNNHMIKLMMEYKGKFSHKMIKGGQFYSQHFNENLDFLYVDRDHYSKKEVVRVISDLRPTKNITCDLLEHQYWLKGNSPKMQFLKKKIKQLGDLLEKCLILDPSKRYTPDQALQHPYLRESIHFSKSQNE

Nc1ncnc2c1ncn2[C@@H]1O[C@H](COP(=O)(O)OP(=O)(O)OP(=O)(O)O)[C@@H](O)[C@H]1O [ATP]
radiometric kinase assay of immunoprecipitate, autoradiography [1]: All PfCLKs were associated with phosphorylation activity of all three substrates
radiometric kinase assay of immunoprecipitate, autoradiography [2]: All PfCLKs were associated with phosphorylation activity of all three substrates
radiometric kinase assay, autoradiography [3]: also exhibited strong phosphorylation activity of the three exogenous substrates
radiometric kinase assay of immunoprecipitate, autoradiography [4]: All PfCLKs were associated with phosphorylation activity of all three substrates

From publication PMC4154858, “Inhibition of the SR Protein-Phosphorylating CLK Kinases of Plasmodium falciparum Impairs Blood Stage Replication and Malaria Transmission” (PLoS ONE, 2014)
